The results in this text go back to article PMC7997579, “Synthetic Lethality in Pancreatic Cancer: Discovery of a New RAD51-BRCA2 Small Molecule Disruptor That Inhibits Homologous Recombination and Synergizes with Olaparib” (Journal of Medicinal Chemistry, 2020).

What all share (assay type): cell-based, human
One assay has as its system BxPC3 cells. Put plainly: Cell viability assay (CellTiter-Glo), association with olaparib. The text has this:
Our working hypothesis is that compounds disrupting RAD51-BRCA2 interaction should affect HR repair and increase the efficacy of PARPi in treating breast, ovarian, and pancreatic cancer. For its clinical relevance, pancreatic adenocarcinoma was selected as our final model for cell-based experiments, and BxPC3 cells were selected for a straightforward comparison with the previously reported triazole derivatives.[30],[31] BxPC3 is derived from a human adenocarcinoma that expresses fully functional BRCA2.[38] As shown in Table 2 and according to the rationale of our hypothesis, our preliminary screening consisted of verifying the efficacy of compounds in inhibiting cell HR and/or in increasing the antiproliferative effect of olaparib. […] HR activity was assessed by evaluating the recombination rate between two transfected plasmids, using a commercially available assay. […] As for the emissucinic acid-containing compounds (4d, 12d, 18d, 20d–23d, 30d, 31d), one of the reasons for their lower potency in cells might be the general poor permeability, likely related to the ionizable acid moiety. […] We then characterized 35d in additional biophysical and cell-based experiments.
(§1) Cell viability was assessed with the CellTiter-Glo luminescent cell viability assay from Promega. For this experiment, 1 × 10^4 cells in 200 μL of culture medium were seeded into each well of a 96-multiwell white body plate and allowed to adhere overnight. After 72 h incubation in the presence of olaparib (10 μM) and the RAD51-BRCA2 disruptors alone or in combination, the plate was allowed to equilibrate at room temperature for 30 min and the CellTiter-Glo reactive was directly added to each well. The plate was kept on a shaker for 10 min to induce cell lysis, and its luminescence was measured with a Fluoroskan Ascent FL reader (Labsystems).
(Cellular ATP, detected with luciferase, serves as a proxy for viable cell number.)

For the next assay, the system named is BxPC-3. Briefly: Cytotoxicity assay (CellTox Green), cell death. The settings on record: BxPC3, 72 h. The procedure:
Cell death was assessed by applying the CellTox Green cytotoxicity assay (Promega). Briefly, BxPC-3 (1 × 10^4/well) were plated in 96-well plates and treated for 72 h with olaparib (10 μM) and the BRCA2-RAD51 disruptors administered alone or in combination. At the end of treatment, the CellTox dye was added to cell cultures and the green fluorescence signal, which is produced by the binding interaction with dead cell DNA, was measured following the manufacturer’s instructions.

The next assay concerns HK-2. Briefly: Cell viability assay (antiproliferative effect), association with olaparib. The settings on record: HK-2, 72 h, 10 μM olaparib; two-way ANOVA. The procedure: (§2) Finally, the antiproliferative effect of the 35d/olaparib combination was also studied on the HR-defective Capan-1 culture and on a non-neoplastic cell line derived from human kidney (HK-2). Moreover, to evaluate the antineoplastic potency of the 35d/olaparib association, we also calculated the combination index (CI) of the two compounds, using the procedure previously described[30],[31] (Figure 9).
as §1

The test system of assay [1] is Capan-1 cells. Described as above. The procedure: as §2, §1
In another assay the test system is BxPC-3 cells. Put plainly: Immunofluorescence of nuclear γ-H2AX foci (DNA damage). The settings on record: BxPC-3, 48 h, 20 μM 35d + 10 μM olaparib vs olaparib alone. As for the experimental part: (§3) To evaluate DNA damage through γH2AX nuclear foci, BXPC3 and Capan1 cells were seeded on glass coverslips in 6-well tissue culture plate (2 × 10^5 cells/well) and allowed to adhere overnight. After 48 h treatment with olaparib (10 μM) or 35d (20 μM) given alone or in combination, cultures growing on coverslips were fixed and treated as described above. For this experiment, the used antibodies were a rabbit polyclonal anti-γH2AX (Abcam, 1:1000 in 5% BSA/PBS) and a secondary anti-rabbit rhodamine-labeled (Novus Biologicals, 1:1000 in 1% BSA/PBS). For both experiments, images were acquired using a Nikon fluorescent microscope equipped with filters for FITC, TRITC, and DAPI. The percentage of cells bearing nuclear foci was estimated by two independent observers, by analyzing 100–250 cells for each treatment sample.

For assay [2], the system named is Capan-1 cells. Described as above. The note with it: Capan-1, 48 h, 20 μM 35d coadministered with 10 μM olaparib vs olaparib alone. The procedure:
as §3

Where only a bound is given, the exact number is not on record here.

Take `CCC(=O)N1N=C(c2c(-c3ccccc3)c3cc(Cl)ccc3[nH]c2=O)CC1c1ccc(OC)cc1` (stereo not shown) [Compound 35d, 6-Chloro-3-(5-(4-methoxyphenyl)-1-propionyl-4,5-dihydro-1H-pyrazol-3-yl)-4-phenylquinolin-2(1H)-one]: the “combination index (CI) with olaparib” value with BxPC3 cells (BxPC3, 10 μM 35d + 10 μM olaparib) is reported as about 1; in the assay on BxPC3 cells (BxPC-3, 20 μM 35d + 10 μM olaparib, CI < 0.8 = synergism) it was under 0.8; in the assay with Capan-1 cells [1] (Capan-1, all tested doses of 35d + 10 μM olaparib), about 1. In the assay on BxPC3 cells (BxPC3, at 15 μM), the olaparib association entry is reported as “olaparib association = present at 15 μM”. Moreover, the “cell death, effect of olaparib coadministration” value with BxPC-3 (20 μM 35d + 10 μM olaparib, p < 0.0001) was “markedly increased and statistically significant”; with BxPC-3 (10–15 μM 35d + 10 μM olaparib) it was “no statistically significant increase”. For the same molecule, the “antiproliferative effect of 35d/olaparib vs olaparib” value with HK-2 is reported as “no dose of 35d appeared to significantly increase”. Besides, the “antiproliferative effect of 35d/olaparib” value in the assay on Capan-1 cells [1] (Capan-1, 72 h, 10 μM olaparib, two-way ANOVA) is reported as “significantly increased antiproliferative effects”. Moreover, the “γ-H2AX labeling in nuclei” value with BxPC-3 cells is listed as “increased”; in the assay on Capan-1 cells [2], “not further enhanced”.
